Where a chain is given by its changes, count along the chain named.
Assays:
[1] = tested on: NCBP3 1-282 (RRM fragment) (Homo sapiens); test: MST; conditions: 5' m7G cap (CAP0); 3' amino linker; MST: equal volumes of MST-1 (50 mM Tris-HCl pH 7.4, 150 mM NaCl, 10 mM MgCl2, 0.05% Tween-20; RNA 50 nM) and MST-2 (20 mM Tris-HCl pH 7.4, 300 mM NaCl, 5% …)
[2] = target: T1, recombinant NCBP3 from E. coli lysates (Homo sapiens, UniProt Q53F19); test: affinity purification on m7GTP-agarose from E. coli lysate, western blot; type: biochemical; conditions: compound immobilised as γ-aminohexyl m7GTP-agarose
T1 construct: full-length, N-terminal His tag (pETG10A-NCBP3; MBP/His version also made), E. coli BL21-AI lysate
T1 sequence (Q53F19 1-620): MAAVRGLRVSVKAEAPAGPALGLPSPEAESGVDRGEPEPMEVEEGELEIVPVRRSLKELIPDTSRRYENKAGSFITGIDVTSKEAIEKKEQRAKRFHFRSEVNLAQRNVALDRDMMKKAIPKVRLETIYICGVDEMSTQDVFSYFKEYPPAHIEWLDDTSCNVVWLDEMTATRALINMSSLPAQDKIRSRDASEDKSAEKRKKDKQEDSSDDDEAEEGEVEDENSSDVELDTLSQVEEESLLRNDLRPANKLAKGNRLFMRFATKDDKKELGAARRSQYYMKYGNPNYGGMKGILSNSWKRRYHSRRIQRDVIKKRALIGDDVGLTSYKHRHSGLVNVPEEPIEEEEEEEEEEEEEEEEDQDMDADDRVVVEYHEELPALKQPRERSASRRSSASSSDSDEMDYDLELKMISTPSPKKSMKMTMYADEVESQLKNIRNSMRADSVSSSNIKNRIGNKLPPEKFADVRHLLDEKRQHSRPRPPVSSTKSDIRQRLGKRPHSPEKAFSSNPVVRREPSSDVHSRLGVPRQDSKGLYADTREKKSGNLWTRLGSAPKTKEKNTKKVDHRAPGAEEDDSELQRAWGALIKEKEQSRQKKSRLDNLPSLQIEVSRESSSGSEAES

[3] = target: T2, NCBP3 (aa 1-282); C17orf85 (Homo sapiens, UniProt Q53F19, W155A/D157A/D158A); test: affinity purification on m7GTP-agarose, Coomassie SDS-PAGE; type: binding; conditions: compound immobilised as γ-aminohexyl m7GTP-agarose; WLDD motif mutant (ALAA)
T2 construct: N-terminal fragment 1-282 with core RRM; expressed in E. coli BL21-AI, purified; untagged for MST and CD (MBP/His construct cloned)
T2 sequence (Q53F19 1-282 W155A/D157A/D158A): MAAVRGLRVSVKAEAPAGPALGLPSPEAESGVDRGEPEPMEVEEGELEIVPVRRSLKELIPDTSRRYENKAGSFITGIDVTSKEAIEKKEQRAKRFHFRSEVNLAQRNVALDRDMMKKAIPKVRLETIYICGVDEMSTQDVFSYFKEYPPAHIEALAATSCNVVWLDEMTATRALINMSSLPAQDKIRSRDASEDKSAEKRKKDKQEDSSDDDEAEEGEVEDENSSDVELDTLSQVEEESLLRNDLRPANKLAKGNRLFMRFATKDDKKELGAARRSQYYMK

[4] = target: T3, NCBP3 (aa 1-282); C17orf85 (Homo sapiens, UniProt Q53F19); test: as above; type: binding; conditions: compound immobilised as γ-aminohexyl m7GTP-agarose
T3 construct: N-terminal fragment 1-282 with core RRM; expressed in E. coli BL21-AI, purified; untagged for MST and CD (MBP/His construct cloned)
T3 sequence (Q53F19 1-282): T2 sequence (Q53F19 1-282 W155A/D157A/D158A) with A155W, A157D, A158D

| Molecule | Kd [1] [µM] | affinity purification on m7GTP-agarose from E. coli lysate, western blot [2] | loss of binding [3] | affinity purification on m7GTP-agarose, Coomassie SDS-PAGE [4] |
| --- | --- | --- | --- | --- |
| CAP-RNA oligo (CAP0), DyLight | 15.8 | – | – | – |
| C[n+]1cn([C@@H]2O[C@H](COP(=O)(O)OP(=O)(O)OP(=O)(O)O)[C@@H](O)[C@H]2O)c2nc(N)[nH]c(=O)c21 [m^7GTP] | – | m^7GTP versus GTP-affinity purification and western blotting of recombinant NCBP3 from E. coli lysates | mutation of the NCBP3 WLDD motif to ALAA resulted in loss of binding | recombinant NCBP3 selectively bound m^7GTP but not GTP |

Source: article PMC4595607, “mRNA export through an additional cap-binding complex consisting of NCBP1 and NCBP3” (Nature Communications, 2015)
